Assay results from US9227991B2, “Anti-tumor bivalent platinum complex and preparation method for complex and ligand of complex” (SOUTHEAST UNIVERSITY, priority 2012, dated 2016).

Assays:
[1] = system: human breast cancer cell MDA-MB-231; assay: MTT cytotoxicity test, MDA-MB-231; format: cell-based; conditions: MDA-MB-231, MTT, 48 hours
Description: (§1) This test example adopts MTT method to conduct cytotoxicity test on the complexes of the present invention and the common clinical anti-cancer platinum drugs.
(§2) Select cells in logarithmic phase, count them and inoculate them in a 96-well culture plate, at about 8000-10000 cells/well. Cultivate the cells overnight, administrate drug after the cells are attached to the wall, and set a drug group, a positive control group and a negative control group. The complex to be tested is prepared into a stock solution by using 5% glucose aqueous solution. Before use, it is diluted with cell culture medium into solutions at a series of concentrations. Each concentration has 3 duplicate wells. Cultivate for 48 hours after administration of drug, add 20 μL of 5 mg/mL MTT, incubate at 37° C. for 4 hours, remove the supernate and add 150 μL of DMSO-dissolved formazan. Determine OD value of every well at 490 nm wavelength by microplate reader, calculate inhibition rate, draw a concentration-inhibition rate curve and calculate value IC50.

[2] = system: human gastric adenocarcinoma cell BGC823; assay: MTT cytotoxicity test, BGC823; format: cell-based; conditions: 48 hours
Description: as §1, §2

[3] = system: human breast cancer cell MCF-7; assay: MTT cytotoxicity test, MCF-7; format: cell-based; conditions: MCF-7, MTT, 48 hours
Description: as §1, §2

[4] = system: human hepatoma carcinoma cell HepG-2; assay: MTT cytotoxicity test, HepG2; format: cell-based; conditions: 48 hours
Description: as §1, §2

[5] = system: human erythroleukemia cell K562; assay: MTT cytotoxicity test, K562; format: cell-based; conditions: 48 hours
Description: as §1, §2

[6] = system: human lung cancer cell A549; assay: MTT cytotoxicity test, A549; format: cell-based; conditions: 48 hours
Description: as §1, §2

[7] = system: human large cell lung cancer cell NCI-H460; assay: MTT cytotoxicity test, NCI-H460; format: cell-based; conditions: 48 hours
Description: as §1, §2

[8] = system: human breast cancer drug resistant cell MCF-7; assay: MTT cytotoxicity test, MCF-7 drug resistant; format: cell-based; conditions: 48 hours
Description: as §1, §2

[9] = system: human hepatoma carcinoma cell SMMC-7721; assay: MTT cytotoxicity test, SMMC-7721; format: cell-based; conditions: SMMC-7721, MTT, 48 hours
Description: as §1, §2

[10] = system: human umbilical vein endothelial cell HUVEC; assay: MTT cytotoxicity test, HUVEC; format: cell-based; conditions: 48 hours
Description: as §1, §2

Kunming mice = assay: Acute toxicity test in mice (iv), Bliss method; conditions: mice, iv via caudal vein, 14 days observation, Bliss method
Description: (§3) The toxicity of the two platinum complexes provided by the present invention was preliminarily researched.
(§4) Select 50 Kunming mice of clean grade, 25 males and 25 females, with body weight 18˜22 g, randomly divide them into 5 groups, 10 mice in each group, and fast for 12 hours. […] The acceptance capacity of an animal is 0.4 mL/20 g. Observe continuously for 14 days after administration, and record toxic symptoms and death of mice.

[11] = system: human acute promyelocytic leukemia cell NB4; assay: MTT cytotoxicity test, NB4; format: cell-based; conditions: 48 hours
Description: as §1, §2

[12] = system: mouse-transplanted tumor Heps; assay: Mouse-transplanted tumor animal model, Heps; format: in vivo, ICR mice; conditions: Heps mice; for Number of Animal End of the test: 8 at beginning
Description: (§5) This test example adopts mouse-transplanted tumor animal model method to test the inhibitory effects of the complexes provided by the present invention on animal-transplanted tumor S180 sarcoma and Heps tumor.
(§6) Get ICR mice and inoculate solid tumor according to the research method of transplanted tumor. Weigh the mice 24 hours after the inoculation and randomly divide them into 7 groups, 8 mice per drug group. Administrate drug by intravenous injection for the first time 24 hours (d1) after the inoculation, administrate drug once every other day for a total of 4 times, at a dose of 0.4 ml/20 g each time. Kill and weigh the tumor-bearing mice days (d10) after the inoculation, separate and weigh the tumor mass, and conduct statistical treatment of all the obtained data (t-test). The inhibitory effect of the complexes on mouse-transplanted tumors S180 and Heps is shown in Table 2 and Table 3 respectively.

[13] = system: mouse-transplanted tumor S180 sarcoma; assay: Mouse-transplanted tumor animal model, S180; format: in vivo, ICR mice; conditions: S180 mice; for Number of Animal End of the test: 10 at beginning
Description: as §5
as §6, with “Weigh the mice 24 hours after the inoculation and randomly divide them into 7 groups, 8 mice per drug group.” left out

mouse = conditions: cited from earlier work
[14] = Acute toxicity test in mice (iv), Bliss method; conditions: both, Kunming, mouse, in vivo, iv
Description: as §3, §4

Solubility in water = format: physicochemical
Description: As for the platinum complex prepared by the method of the present invention, the molecular structures of the compounds are determined by H NMR, HR ESI-MS and elemental analysis and their solubility in water was determined.

[15] = 25 mg/kg iv every other day x4, X ± SD

Which results are given for `O=C1[O][Pt]2([NH][C@@H]3CCCC[C@H]3[NH]2)[O]C1=O` [Oxaliplatin, oxaliplatin]?
IC50 [1]: 29.1 µM; IC50 [2]: 7.92 µM; IC50 [3]: 25.7 µM; IC50 [4]: 27.2 µM; IC50 [5]: 23.6 µM; IC50 [6]: 70.3 µM; IC50 [7]: 23.1 µM; IC50 [8]: 351 µM; IC50 [9]: 32.3 µM; IC50 [10]: 16.3 µM

Which IC50 [1] does the source give for `N.N.[Cl][Pt][Cl]` [Cis-platinum, cis-platinum] here?
The IC50 was 18.3 µM.

And the IC50 [2]?
The IC50 was 5.44 µM.

What about the IC50 [3] of the same molecule?
Its IC50 is 32.9 µM.

And the IC50 [4]?
The IC50 was 2.11 µM.

And the IC50 [5]?
Its IC50 is 10.9 µM.

What about the IC50 [6] of the same molecule?
The IC50 was 16.6 µM.

And the IC50 [8]?
The IC50 was 32.9 µM.

What about the IC50 [10] of the same molecule?
The IC50 was 11.2 µM.

With `N[C@@H]1CCCC[C@H]1N.O=C1CC2(C1)C(=O)[O][Pt][O]C2=O` [GSH-6, cis-[3-ketone-1,1-cyclobutane-dicarboxylic acid radical.trans-1,2-cyclohexanediamineplatinum(II)]] as the molecule, how does the IC50 [1] read?
Its IC50 is 36.3 µM.

What about the IC50 [2] of the same molecule?
Its IC50 is 8.9 µM.

What about the IC50 [3] of the same molecule?
The IC50 was 34.2 µM.

What about the IC50 [4] of the same molecule?
Its IC50 is 31.6 µM.

What about the “LD50 (acute toxicity test)” value (Kunming mice) of the same molecule?
Its value is 100 mg/kg.

And the IC50 [11]?
Its IC50 is 3.1 µM.

And the IC50 [5]?
The IC50 was 36 µM.

And the IC50 [6]?
The IC50 was 47.5 µM.

What about the “Body weight (g) After administration” value [12, 15] of the same molecule?
Its value is 18.10 ± 1.10 g.

And the “Tumor inhibition rate (%)” value ([12]; 25 mg/kg iv every other day x4, d10)?
The value was 35.44%.

And the “Tumor weight” value ([12]; 25 mg/kg iv every other day x4, d10, X ± SD)?
Its value is 0.84 ± 0.17 g.

What about the “Number of Animal End of the test” value ([12]; 25 mg/kg iv every other day x4) of the same molecule?
The value was 8.

What about the “Number of Animal End of the test” value ([12]; 50 mg/kg iv every other day x4) of the same molecule?
Its value is 0.

What about the IC50 [7] of the same molecule?
The IC50 was 11.9 µM.

And the IC50 [8]?
The IC50 was 1350 µM.

And the IC50 [9]?
The IC50 was 216 µM.

What about the IC50 [10] of the same molecule?
Its IC50 is 68.9 µM.

And the “Body weight (g) After administration” value ([13]; 10 mg/kg iv every other day x4, X ± SD)?
Its value is 20.60 ± 2.50 g.

What about the “Tumor inhibition rate (%)” value ([13]; 10 mg/kg iv every other day x4, d10) of the same molecule?
Its value is 33.13%.

What about the “Tumor weight” value ([13]; 10 mg/kg iv every other day x4, d10, X ± SD) of the same molecule?
The value was 0.65 ± 0.14 g.

What about the “Number of Animal End of the test” value ([13]; 10 mg/kg iv every other day x4) of the same molecule?
Its value is 10.

What about the “Body weight (g) After administration” value ([13]; 20 mg/kg iv every other day x4, X ± SD) of the same molecule?
Its value is 18.60 ± 2.24 g.

What about the “Tumor inhibition rate (%)” value ([13]; 20 mg/kg iv every other day x4, d10) of the same molecule?
The value was 46.61%.

And the “Tumor weight” value ([13]; 20 mg/kg iv every other day x4, d10, X ± SD)?
Its value is 0.52 ± 0.13 g.

What about the “Number of Animal End of the test” value ([13]; 20 mg/kg iv every other day x4) of the same molecule?
Its value is 10.

Which results are given for `N.N.O=C([O-])C1(C(=O)[O-])CCC1.[Pt+2]` [Carboplatin, carboplatin]?
IC50 [1]: 93.3 µM; IC50 [2]: 43.2 µM; IC50 [3]: 109 µM; IC50 [4]: 99.1 µM; mouse LD50 values in literature (mouse): 139.00 mg/kg; IC50 [11]: 12.6 µM; IC50 [5]: 118 µM; IC50 [6]: 137 µM; IC50 [7]: 30.6 µM; IC50 [8]: 457 µM; IC50 [9]: 52.7 µM; IC50 [10]: 102 µM

For `[NH2][Pt]1([NH2])[O]C(=O)C2(CC(=O)C2)C(=O)[O]1` [GSH-5, cis-[3-ketone cyclobutane-1,1-dicarboxylic acid radical.diamineplatinum (II)]], which LD50 at 14 days [14] is on record?
The LD50 at 14 days was 150 mg/kg.

What about the solubility (Solubility in water) of the same molecule?
Its solubility is 16 mg/mL.

And the “Body weight (g) After administration” value [12, 15]?
The value was 22.13 ± 3.52 g.

What about the “Number of Animal End of the test” value ([12]; 25 mg/kg iv every other day x4) of the same molecule?
Its value is 8.

And the “Body weight (g) After administration” value ([12]; 50 mg/kg iv every other day x4, X ± SD)?
Its value is 13.50 ± 0.50 g.

And the “Number of Animal End of the test” value ([12]; 50 mg/kg iv every other day x4)?
The value was 2.

What about the “Body weight (g) After administration” value ([13]; 15 mg/kg iv every other day x4, X ± SD) of the same molecule?
Its value is 22.50 ± 1.91 g.

What about the “Number of Animal End of the test” value ([13]; 15 mg/kg iv every other day x4) of the same molecule?
The value was 10.

And the “Body weight (g) After administration” value ([13]; 30 mg/kg iv every other day x4, X ± SD)?
The value was 18.13 ± 1.76 g.

And the “Number of Animal End of the test” value ([13]; 30 mg/kg iv every other day x4)?
The value was 8.
